This is an account of results in ChEMBL document CHEMBL5154716, “Neuropeptide B/W receptor 1 peptidomimetic agonists: Structure-activity relationships and plasma stability” (Eur J Med Chem, 2022).

Usually IC50 stands for the point on the concentration scale where inhibition reaches its midpoint. As a reminder, the EC50 is the midpoint of the concentration-response curve. Usually Emax stands for the size of the effect at its maximum, as opposed to the concentration needed. By half-life is commonly meant how long it takes for the measured level to halve. One may read the EC80 as the concentration needed for an effect of 80%.

Data set [1] can be described thus: Metabolic stability in male Sprague-Dawley rat plasma assessed as compound remaining at 1 uM measured after […] by LC-MS/MS analysis. In kind it is ADME, cell-free. Particulars: read-out: Stability.
The target of data set [2] is T1, Neuropeptides B/W receptor type 1 (Homo sapiens, UniProt P48145).
T1 sequence (P48145 whole entry): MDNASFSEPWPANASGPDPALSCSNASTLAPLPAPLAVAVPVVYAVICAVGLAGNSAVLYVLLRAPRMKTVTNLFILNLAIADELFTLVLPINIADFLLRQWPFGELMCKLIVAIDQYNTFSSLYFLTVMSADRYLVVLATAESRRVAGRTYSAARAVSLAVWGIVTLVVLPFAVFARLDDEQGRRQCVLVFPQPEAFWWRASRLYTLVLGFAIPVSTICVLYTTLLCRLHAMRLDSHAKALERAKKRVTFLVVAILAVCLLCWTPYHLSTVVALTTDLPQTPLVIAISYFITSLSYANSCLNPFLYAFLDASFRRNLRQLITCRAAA
The data set can be described thus: Antagonist activity at human NPBWR1 expressed in CHO-RD-HGA16 cells measured by calcium mobilization assay. In kind it is functional, cell-based. (A change in cytosolic calcium serves as a functional read-out for many receptors and channels.)

Data set [3] concerns the target T1, Neuropeptides B/W receptor type 1. The data set can be described thus: (§1) Agonist activity at human NPBWR1 expressed in CHO-RD-HGA16 cells measured by calcium mobilization assay. In kind it is functional, cell-based.
Data set [4] deals with T2, Neuropeptides B/W receptor type 1 (Homo sapiens) (UniProt P48145).
T2 sequence (whole entry): T1 sequence (P48145 whole entry)
The data set can be described thus: Agonist activity at human NPBWR1 expressed in CHO-RD-HGA16 cells measured by calcium mobilization assay relative to control. In kind it is functional, cell-based.

The target in data set [5] is T1, Neuropeptides B/W receptor type 1. The data set can be described thus: Agonist activity at human NPBWR1 expressed in CHO cells measured by LANCE Ultra cAMP kit-based TR-FRET assay. In kind it is functional, cell-based. A general note: TR-FRET usually uses a lanthanide donor and a delayed reading to cut background.
A short description of data set [6]: Metabolic stability in male Sprague-Dawley rat plasma assessed as half-life at 1 uM measured after 240 mins by LC-MS/MS analysis. In kind it is ADME, cell-free.
The target in data set [7] is T2, Neuropeptides B/W receptor type 1 (Homo sapiens). Described as §1. In kind it is functional, cell-based. Particulars: filed as agonist.
For data set [8] the target is unchanged. In words: Antagonist activity at human NPBWR1 expressed in CHO-RD-HGA16 cells at 10 uM measured by calcium mobilization assay relative to control. On the set-up: scale not given: the % may be the effect or the level left. Particulars: filed as antagonist. The format is functional, cell-based.

Non-standard residues stand in square brackets, D forms with d. Residues, ends and D or L forms follow the SMILES beside them. *: point of attachment. Propanoyl(3-indol-3-yl) = O=C(CCc1c[nH]c2ccccc12)*; Trp(1-Me) = Cn1cc(C[C@H](N)C(=O)O)c2ccccc21; Tle = CC(C)(C)[C@H](N)C(=O)O; Ava = NCCCCC(=O)O

As to `CC(C)C[C@H](NC(=O)CNC(=O)[C@H](CO)NC(=O)[C@H](CC(C)C)NC(=O)[C@H](CC(C)C)NC(=O)CNC(=O)[C@H](C)NC(=O)[C@H](C)NC(=O)[C@H](CCCNC(=N)N)NC(=O)CNC(=O)[C@@H](NC(=O)[C@H](CO)NC(=O)[C@H](Cc1ccc(O)cc1)NC(=O)[C@H](CO)NC(=O)[C@H](CO)NC(=O)[C@H](Cc1cnc[nH]1)NC(=O)CNC(=O)[C@H](C)NC(=O)[C@H](C)NC(=O)[C@@H]1CCCN1C(=O)[C@H](CCCCN)NC(=O)[C@H](Cc1ccc(O)cc1)NC(=O)[C@@H](N)Cc1c[nH]c2ccccc12)C(C)C)C(N)=O`, in data set [1], the remaining at 0.25 h, 1 µM worked out at 48%. Turning to `CCCCCCCCCCCCCCCC(=O)NCCCC[C@H](NC(=O)[C@H](CCCCN)NC(=O)[C@H](CCCCN)NC(=O)[C@H](CCCCN)NC(=O)[C@H](Cc1ccc(O)cc1)NC(=O)[C@@H](N)Cc1c[nH]c2ccccc12)C(=O)N[C@@H](CCCCN)C(=O)NCCCCC(=O)NCC(=O)N[C@@H](CCCNC(=N)N)C(=O)N[C@@H](C)C(=O)N[C@@H](C)C(=O)NCC(=O)N[C@@H](CC(C)C)C(=O)N[C@@H](CC(C)C)C(N)=O`, the IC50 in data set [2] (cho-rd-hga16) stood at 406 nM. In addition, the EC50 in data set [3] (cho-rd-hga16) is greater than 10000 nM. As for `CC(C)C[C@H](NC(=O)[C@@H](CC(C)C)NC(=O)CNC(=O)[C@H](C)NC(=O)[C@H](C)NC(=O)[C@H](CCCNC(=N)N)NC(=O)CCCCNC(=O)CCCCNC(=O)CCCCNC(=O)[C@H](CCCCN)NC(=O)[C@H](Cc1ccc(O)cc1)NC(=O)[C@@H](N)Cc1c[nH]c2ccccc12)C(N)=O`, the EC50 in data set [3] is 530 nM. In data set [4], the Emax amounted to 38%. On to `CC(C)C[C@H](NC(=O)[C@H](CC(C)C)NC(=O)CNC(=O)[C@H](C)NC(=O)[C@H](C)NC(=O)[C@H](CCCNC(=N)N)NC(=O)CNC(=O)CCCCNC(=O)CCCCNC(=O)CCCCNC(=O)[C@H](CCCCN)NC(=O)[C@H](Cc1ccc(O)cc1)NC(=O)[C@H](Cc1c[nH]c2ccccc12)NC(=O)[C@@H](N)Cc1cn(C)c2ccccc12)C(N)=O` (H-[Trp(1-Me)]WYK[Ava][Ava][Ava]GRAAGLL-NH2), for which the IC50 in data set [2] is 545 nM. Also, the EC50 in data set [3] is greater than 10000 nM. Take `CC(C)C[C@H](NC(=O)[C@H](CC(C)C)NC(=O)CNC(=O)[C@H](C)NC(=O)[C@H](C)NC(=O)[C@H](CCCNC(=N)N)NC(=O)CNC(=O)CCCCNC(=O)CCCCNC(=O)CCCCNC(=O)[C@H](CCCCN)NC(=O)[C@H](Cc1ccc(O)cc1)NC(=O)[C@H](Cc1c[nH]c2ccccc12)NC(=O)CCc1c[nH]c2ccccc12)C(N)=O` ({Propanoyl(3-indol-3-yl)}-WYK[Ava][Ava][Ava]GRAAGLL-NH2): the results for the EC50 in data set [5] and in data set [3] were 2.7 nM and 8 nM, respectively. For the same compound, in data set [6], the half-life at 1 µM was found to be 39.1 min. Further, in data set [1], the remaining at 0.25 h, 1 µM came to 86%.

As to `CC(C)C[C@H](NC(=O)CNC(=O)[C@H](C)NC(=O)[C@H](C)NC(=O)[C@H](C)NC(=O)CNC(=O)CCCCNC(=O)CCCCNC(=O)CCCCNC(=O)[C@H](CCCCN)NC(=O)[C@H](Cc1ccc(O)cc1)NC(=O)[C@@H](N)Cc1c[nH]c2ccccc12)C(=O)N[C@@H](CO)C(=O)N[C@@H](CO)C(N)=O` (H-WYK[Ava][Ava][Ava]GAAAGLSS-NH2), the EC50 in data set [3] was greater than 10000 nM. As for `CC(C)C[C@H](NC(=O)[C@H](CC(C)C)NC(=O)CNC(=O)[C@H](C)NC(=O)[C@@H](C)NC(=O)[C@H](CCCNC(=N)N)NC(=O)CCCCNC(=O)CCCCNC(=O)CCCCNC(=O)[C@H](CCCCN)NC(=O)[C@H](Cc1ccc(O)cc1)NC(=O)[C@@H](N)Cc1c[nH]c2ccccc12)C(N)=O`, the EC50 in data set [3] worked out at 578 nM. Moreover, the Emax in data set [4] came to 33%.

Take `CC(C)C[C@H](NC(=O)CNC(=O)[C@H](C)NC(=O)[C@H](C)NC(=O)[C@H](CCCNC(=N)N)NC(=O)CNC(=O)CCCCNC(=O)CCCCNC(=O)CCCCNC(=O)[C@H](CCCCN)NC(=O)[C@@H](NC(=O)[C@@H](N)Cc1c[nH]c2ccccc12)[C@@H](C)O)C(=O)N[C@H](C(N)=O)C(C)(C)C` (H-WTK[Ava][Ava][Ava]GRAAGL[Tle]-NH2): in data set [3], the EC50 worked out at 479 nM.

As to `CC(C)C[C@H](NC(=O)[C@H](CC(C)C)NC(=O)CNC(=O)[C@H](C)NC(=O)[C@H](C)NC(=O)[C@@H](CCCNC(=N)N)NC(=O)CCCCNC(=O)CCCCNC(=O)CCCCNC(=O)[C@H](CCCCN)NC(=O)[C@H](Cc1ccc(O)cc1)NC(=O)[C@@H](N)Cc1c[nH]c2ccccc12)C(N)=O`, the EC50 in data set [3] is greater than 10000 nM. Turning to `CSCC[C@H](NC(=O)[C@H](CC(C)C)NC(=O)[C@H](CC(C)C)NC(=O)CNC(=O)[C@H](C)NC(=O)[C@H](C)NC(=O)[C@H](CCCNC(=N)N)NC(=O)CNC(=O)[C@@H](NC(=O)[C@@H](NC(=O)[C@H](Cc1cnc[nH]1)NC(=O)[C@H](Cc1ccc(O)cc1)NC(=O)[C@H](CCCNC(=N)N)NC(=O)[C@@H]1CCCN1C(=O)[C@H](CO)NC(=O)[C@H](C)NC(=O)[C@@H](NC(=O)[C@H](Cc1cnc[nH]1)NC(=O)[C@H](CCCCN)NC(=O)[C@H](Cc1ccc(O)cc1)NC(=O)[C@@H](N)Cc1c[nH]c2ccccc12)C(C)C)[C@@H](C)O)C(C)C)C(=O)NCC(=O)N[C@@H](CC(C)C)C(N)=O`, the EC80 in data set [7] came out at 20 nM. For the same compound, the Emax in data set [4] (filed as agonist) is 100%. For `CC(C)C[C@H](NC(=O)CNC(=O)[C@H](C)NC(=O)[C@H](C)NC(=O)[C@H](CCCNC(=N)N)NC(=O)CCCCNC(=O)CCCCNC(=O)CCCCNC(=O)[C@H](CCCCN)NC(=O)[C@H](Cc1ccc(O)cc1)NC(=O)[C@@H](N)Cc1c[nH]c2ccccc12)C(=O)N[C@H](CC(C)C)C(N)=O`, the EC50 in data set [3] stood at 463 nM. In addition, the Emax in data set [4] (filed as agonist) was 57%. Take `CC(C)C[C@H](NC(=O)CNC(=O)[C@H](C)NC(=O)[C@H](C)NC(=O)[C@H](CCCNC(=N)N)NC(=O)CNC(=O)CCCCNC(=O)CCCCNC(=O)CCCCNC(=O)[C@H](C)NC(=O)[C@@H](N)Cc1c[nH]c2ccccc12)C(=O)N[C@@H](CC(C)C)C(=O)N[C@@H](CO)C(N)=O` (H-WA[Ava][Ava][Ava]GRAAGLLS-NH2): the IC50 in data set [2] worked out at 840 nM. Besides, in data set [3], the EC50 was greater than 10000 nM. Also, in data set [8], the Activity was found to be 95%.

For `CC(C)C[C@H](NC(=O)[C@H](CC(C)C)NC(=O)CNC(=O)[C@H](C)NC(=O)[C@H](C)NC(=O)[C@H](CCCNC(=N)N)NC(=O)CNC(=O)CCCCNC(=O)CCCCNC(=O)CCCCNC(=O)[C@H](CCCCN)NC(=O)[C@H](NC(=O)[C@@H](N)Cc1c[nH]c2ccccc12)[C@@H](C)O)C(N)=O`, in data set [3], the EC50 is greater than 10000 nM. In addition, the Activity in data set [8] is 81%. As for `CC(C)C[C@H](NC(=O)CNC(=O)[C@H](C)NC(=O)[C@H](C)NC(=O)[C@H](CCCNC(=N)N)NC(=O)CNC(=O)CCCCNC(=O)CCCCNC(=O)CCCCNC(=O)[C@H](C)NC(=O)[C@H](Cc1ccc(O)cc1)NC(=O)[C@@H](N)Cc1c[nH]c2ccccc12)C(=O)N[C@@H](CO)C(=O)N[C@@H](CO)C(N)=O` (H-WYA[Ava][Ava][Ava]GRAAGLSS-NH2), the EC50 in data set [3] came out at 478 nM. As for `CCCCCCCCCCCCCCCC(=O)NCCCC[C@@H](NC(=O)[C@H](CCCCN)NC(=O)[C@H](CCCCN)NC(=O)[C@H](CCCCN)NC(=O)[C@H](Cc1ccc(O)cc1)NC(=O)[C@@H](N)Cc1c[nH]c2ccccc12)C(=O)N[C@@H](CCCCN)C(=O)NCCCCC(=O)NCC(=O)N[C@@H](CCCNC(=N)N)C(=O)N[C@@H](C)C(=O)N[C@@H](C)C(=O)NCC(=O)N[C@@H](CC(C)C)C(=O)N[C@@H](CC(C)C)C(N)=O`, in data set [8], the Activity is 95%.
